# Patent publication US20240058452A1, “PHARMACEUTICAL COMPOSITION CONTAINING TEMPERATURE-RESPONSIVE IONIC LIQUID” (priority 2019, published 2024)
# Columns and labels:
# [1] = Confirmation of temperature responsive property of ionic liquid (lower critical solution temperature by absorbance at 450 nm); type: physicochemical; conditions: absorbance 450 nm, heating 20° C.→95° C. (0.5° C./minute)
# Protocol: (§1) Whether an ionic liquid is a temperature-responsive ionic liquid having a lower critical solution temperature (LCST-type temperature-responsive ionic liquid) is determined by measuring the absorbance of the liquid at a wavelength within a visible light region while gradually increasing the temperature and observing white turbidity, in other words, an abrupt increase in absorbance at a certain temperature caused by an increase in degree of hydrophobicity. The specific procedure is as follows. First, a mixture of an ionic liquid and water is prepared and the layer state at room temperature is observed. Then, the mixture is placed in a refrigerator of 4° C., sufficiently stirred and allowed to stand still for one hour. The state of the mixture is observed. If the layer state of the ionic liquid-water mixture at room temperature is the same as the layer state at 4° C., the mixture is increased in temperature at a rate of 0.5° C./minute within the range of 20° C. to 95° C. and the absorbance of the mixture is measured at 450 nm. Based on a change in absorbance, whether the ionic liquid thus measured is LCST-type temperature-responsive ionic liquid or not can be checked.
# The obtained data of absorbance change can be analyzed by differential calculus according to Tm (nucleic acid melting temperature) analysis program to obtain the lower critical solution temperature. In contrast, if the phase state of the ionic liquid-water mixture at room temperature is different from the state at 4° C., the mixture is increased in temperature at a rate of 0.5° C./minute within the range of 5° C. to 40° C. and the absorbance of the mixture is measured at 450 nm. Based on a change in absorbance, whether the ionic liquid thus measured is LCST-type temperature-responsive ionic liquid or not can be checked.
# (§2) More specifically, the temperature responsive property was examined by measuring a absorbance at 450 nm at different temperatures in the following measurement conditions to obtain a change in absorbance.
# (0.5° C./minute) • Analysis method: calculation by differential calculus using Tm (nucleic acid melting temperature) analysis program
# (§3) (0.5° C./minute) • Analysis method: calculation by differential calculus using Tm (nucleic acid melting temperature) analysis program.
# as §3
# [2] = mixture of ionic liquid and water as obtained in the synthesis
# Protocol: as §1, §2
# [3] = test system: human cultured epidermal model (LabCyte EPI-MODEL12); conditions: pregabalin 10 mg/mL in 100 mmol/L aqueous solution or dispersion of the ionic liquid, 300 μL donor, 37° C., control in water 252
# Protocol: A human cultured epidermal model (LabCyte EPI-MODEL12, Japan Tissue Engineering Co., Ltd.) was used. The phase on the stratum corneum side of the model was defined as a donor phase, whereas the phase on the stratum basal side of the model was defined as a receptor phase. Whether a temperature-responsive ionic liquid enhances the permeation of pregabalin from the donor phase to the receptor phase was examined. The test was carried out in an incubator of 37° C. Pregabalin was dissolved in water, or a 100 mmol/L aqueous solution or water dispersion of a temperature-responsive ionic liquid to a concentration of 10 mg/mL. Each solution (300 μL) was added to the donor phase. Twenty-four hours later, a receptor fluid was sampled and analyzed by LC-MS/MS to obtain the amount of pregabalin permeated. The Hanks' balanced salt solution was used as the receptor fluid.
# [4] = test system: human cultured epidermal model (LabCyte EPI-MODEL12); conditions: 37° C.
# Protocol: A human cultured epidermal model (LabCyte EPI-MODEL12, Japan Tissue Engineering Co., Ltd.) was used. The phase on the stratum corneum side of the model was defined as a donor phase, whereas the phase on the stratum basal side of the model was defined as a receptor phase. […] The test was carried out in an incubator of 37° C. […] Each solution (300 μL) was added to the donor phase. […] The Hanks' balanced salt solution was used as the receptor fluid.
# [5] = cited from earlier work
# [6] = V-750, initial waiting 5 minutes
# [7] = ionic liquid-water sample, UV1650PC, initial waiting 10 minutes
Compound,"LCST (lower critical solution temperature) [1, 6]","LCST (lower critical solution temperature) [1, 7]",compatibility with water at room temperature [2],also measured
diisopropanolammonium decanoate [Reference Example 4-sample],None,,,
"CCCC[P+](CCCC)(CCCC)CCCC.Cc1ccc(S(=O)(=O)[O-])cc1 [Synthesis Example 16-sample, tetrabutylphosphonium p-toluenesulfonate]",,54.6 °C,compatible with water at room temperature,
"CCCCCCCCCC(=O)O.C[N+](C)(C)CCO [Reference Example 3-sample, cholinium decanoate, reference compound]",None,,,24-hour Cumulative permeation amount of pregabalin [3]: 354 μg/cm^2
"C[N+](C)(C)CCO.O=C([O-])c1ccccc1O [Reference Example 5-sample, cholinium salicylate]",None,,,
"CCCC[P+](CCCC)(CCCC)CCCC.O=S(=O)([O-])c1ccc(Cl)cc1 [Synthesis Example 12-sample, tetrabutylphosphonium 4-chlorobenzenesulfonate]",,25.6 °C,separated from water at room temperature,
"CCCC[P+](CCCC)(CCCC)CCCC.O=C([O-])c1ccc(C(F)(F)F)cc1O [Synthesis Example 1-sample, tetrabutylphosphonium 4-(trifluoromethyl)salicylate]",,23.6 °C,separated from water at room temperature,"24-hour Cumulative permeation amount of pregabalin [3]: 3030 μg/cm^2; 24-hour Cumulative permeation amount of lidocaine hydrochloride monohydrate ([4]; lidocaine hydrochloride monohydrate 10 mg/mL in 100 mmol/L aqueous solution or dispersion of the ionic liquid, control in water 308): 1100 μg/cm^2; 24-hour Cumulative permeation amount of tramadol hydrochloride ([4]; tramadol hydrochloride 10 mg/mL in 100 mmol/L aqueous solution or dispersion of the ionic liquid, control in water 300): 2510 μg/cm^2"
CCc1cccc2c3c([nH]c12)C(CC)(CC(=O)O)OCC3 (stereo not drawn) [etodolac],,,,solubility of etodolac to water [5]: 110 µg/mL
"CCCC[P+](CCCC)(CCCC)CCCC.O=S(=O)([O-])c1ccccc1 [Reference Example 2-sample, tetrabutylphosphonium benzenesulfonate]",,None,,
